Laboratory results published in patent US10730870B2, “Compounds and methods for the enhanced degradation of targeted proteins” (Arvinas, Inc., priority 2015, dated 2020).

Columns and labels:
His-tagged VHL protein = His-tagged VHL protein (Homo sapiens (Human), UniProt P40337); assay: Surface plasmon resonance (SPR) assay; assay type: binding; settings: average of at least N=2, 1:1 fitting
Description: The surface plasmon resonance (SPR) experiments were conducted on a Biacore3000 (GE Healthcare). His-tagged VHL protein was immobilized on a carboxymethylated dextran surface with nitriloacetic acid (NTA), taking advantage of NTA/Ni^2+ chelation. The prepared surface was allowed to equilibrate over three hours in running buffer (Ambion 1×PBS buffer @ pH 7/4, 0.005% Tween, 2% DMSO).
All compounds were prepared in 100% DMSO stock plates with a top concentration of 5 mM in a 3× serial dilution. Compounds were transferred from the stock plate to the assay plate and diluted into running buffer containing no DMSO. All compounds were run as a six-concentration series with a final assay top concentration of 100 uM. Data analysis was performed in Scrubber 2 (BioLogic software, Campbell, Australia). Blanks were subtracted and data was corrected for DMSO using a standard DMSO curve.
Table 2 illustrates VHL inhibition data (i.e., Kd, μM) of examples contained herein in a surface plasmon resonance (SPR) assay.

LNCap and VCaP cells = assay: Apoptosis, cell death and anti-proliferation in LNCaP and VCaP cell systems; assay type: cell-based; settings: increasing concentrations of AR agonist R1881 and cells containing the AR F876L mutation

Sequence of His-tagged VHL protein (P40337 whole entry, looked up): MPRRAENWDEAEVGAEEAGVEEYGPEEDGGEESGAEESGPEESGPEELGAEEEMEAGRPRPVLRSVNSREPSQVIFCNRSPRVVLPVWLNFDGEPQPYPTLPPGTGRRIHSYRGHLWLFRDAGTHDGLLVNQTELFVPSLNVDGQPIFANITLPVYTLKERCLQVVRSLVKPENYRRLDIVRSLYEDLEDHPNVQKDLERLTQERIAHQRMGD
Sequence of His-tagged VHL protein (Q15370 whole entry partner, looked up): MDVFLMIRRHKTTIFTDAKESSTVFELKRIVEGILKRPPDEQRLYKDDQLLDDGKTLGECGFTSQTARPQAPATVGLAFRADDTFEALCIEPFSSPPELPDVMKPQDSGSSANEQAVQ
Sequence of His-tagged VHL protein (Q15369 whole entry partner, looked up): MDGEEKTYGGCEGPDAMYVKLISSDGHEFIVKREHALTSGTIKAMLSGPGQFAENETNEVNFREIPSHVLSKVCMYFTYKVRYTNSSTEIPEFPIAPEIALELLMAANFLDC

Row | SMILES | Kd (His-tagged VHL protein) [nM] | anti-proliferative activity (LNCap and VCaP cells)
1 | Cc1cc([C@H](C(=O)N2C[C@H](O)C[C@H]2C(=O)N[C@@H](C)c2ccc(-c3scnc3C)cc2)C(C)C)on1 [Example 205, (2S,4R)-4-hydroxy-N-[(1S)-1-[4-(4-methyl-1,3-thiazol-5-yl)phenyl]ethyl]-1-[(2R)-3-methyl-2-(3-methyl-1,2-oxazol-5-yl)butanoyl]pyrrolidine-2-carboxamide] | 330 | 
2 | CNC(=O)c1ccc(N2C(=S)N(c3ccc(C#N)c(C(F)(F)F)c3)C(=O)C2(C)C)cc1F [enzalutamide] |  | inactive
3 | CC[C@H](NC(=O)[C@@H]1C[C@@H](O)CN1C(=O)[C@@H](c1cc(C)no1)C(C)C)c1ccc(-c2scnc2C)cc1 [Example 207, (2S,4R)-4-hydroxy-N-[(1S)-1-[4-(4-methyl-1,3-thiazol-5-yl)phenyl]propyl]-1-[(2R)-3-methyl-2-(3-methyl-1,2-oxazol-5-yl)butanoyl]pyrrolidine-2-carboxamide] | 240 | 
